# Results reported in publication PMC8877149, “A Fungal Defensin Inhibiting Bacterial Cell-Wall Biosynthesis with Non-Hemolysis and Serum Stability” (Journal of Fungi, 2022).
# Where a SMILES comes first, the peptide text is derived from it. Bridges are numbered along the chain shown (N, C = ends).
# Tests used:
# [1] = system: Staphylococcus aureus J698; assay: Inhibition-zone assay, lethal concentration (CL); type: cell-based; conditions: S. aureus J698
# Method: (§1) The inhibition-zone assay was used to quantify the antibacterial activity of Py4, as described previously. In brief, an overnight bacterial culture from a single colony was inoculated into fresh medium and grew to the late log-phase. A 10 μL aliquot of each culture was diluted in 6 mL pre-heated medium containing 0.8% agar. The mixture was spread on a 9-cm Petri dish, giving a depth of 1 mm. After settling, 3-mm wells were punched in the plate and then 2 μL peptide samples of different concentrations were added to each well. The agar plates were incubated overnight at indicated temperatures. A lethal concentration (CL) was calculated from a plot of d^2 against log n, where d is the diameter (in cm) and n is the amount of sample applied in the well (in nmol). The plot is linear and thus CL can be calculated from the slope (k) and the intercept (m) of this plot. The formula used here was CL = 2.93/ak10^m/k, where a is the thickness of the bacterial plate and CL is in μM.
# [2] = system: Bacillus megaterium CGMCC 1.0459; assay: Inhibition-zone assay, lethal concentration (CL); type: cell-based
# Method: as §1
# [3] = system: Methicillin-resistant coagulase negative Staphylococci P1369; assay: Inhibition-zone assay, lethal concentration (CL); type: cell-based
# Method: as §1
# Curtobacterium luteum = assay: Inhibition-zone assay, lethal concentration (CL); type: cell-based
# Method: as §1
# [4] = system: Staphylococcus warneri CGMCC 1.2824; assay: Inhibition-zone assay, lethal concentration (CL); type: cell-based
# Method: as §1
# [5] = system: Penicillin-resistant Staphylococcus epidermidis P1389; assay: Inhibition-zone assay, lethal concentration (CL); type: cell-based; conditions: penicillin-resistant S. epidermidis P1389
# Method: as §1
# [6] = system: Methicillin-resistant Staphylococcus aureus P1374; assay: Inhibition-zone assay, lethal concentration (CL); type: cell-based; conditions: methicillin-resistant S. aureus P1374
# Method: as §1
# [7] = system: Staphylococcus aureus CGMCC 1.89; assay: Inhibition-zone assay, lethal concentration (CL); type: cell-based
# Method: as §1
# [8] = system: Staphylococcus aureus J685; assay: Inhibition-zone assay, lethal concentration (CL); type: cell-based; conditions: S. aureus J685
# Method: as §1
# [9] = system: Methicillin-resistant Staphylococcus aureus P1386; assay: Inhibition-zone assay, lethal concentration (CL); type: cell-based; conditions: methicillin-resistant S. aureus P1386
# Method: as §1
# [10] = system: Penicillin-sensitive Staphylococcus epidermidis P1111; assay: Inhibition-zone assay, lethal concentration (CL); type: cell-based; conditions: penicillin-sensitive S. epidermidis P1111
# Method: as §1
# [11] = system: Staphylococcus aureus J706; assay: Inhibition-zone assay, lethal concentration (CL); type: cell-based; conditions: S. aureus J706
# Method: as §1
# [12] = system: fresh erythrocytes from ICR mice; assay: Hemolysis assay; type: cell-based, Mus musculus; conditions: 3.125 to 25 µM, 2-fold serial dilutions, in 0.9% NaCl; A570; 100% = 1% Triton X-100
# Method: (§2) Hemolytic activity of peptides against fresh erythrocytes from ICR mice (Mus musculus) was assayed according to the standard method. Peptides were diluted with 0.9% NaCl to the indicated concentration. The percentage of hemolysis is determined as (Apep − Ablank)/(Atot − Ablank) × 100, in which “A” represents absorbance measured at 570 nm. Ablank and Apep were evaluated in the absence or presence of peptides. One hundred percent hemolysis (Atot) was obtained in the presence of 1% Triton X-100. For the stability assay, Py4 was incubated in H2O or fresh mouse serum for the indicated times at 37 °C and their residual activity was measured by the inhibition-zone assay.
# [13] = Serum stability assay (residual activity by inhibition-zone assay); type: in vitro ADME; conditions: undiluted fresh mouse serum, 37 °C, read-out inhibition zone on B. megaterium, 0.2 nmol/well, ns vs 0 h
# Method: as §2
# S. warneri cells = assay: Cytoplasmic accumulation of UDP-MurNAc-pentapeptide (UMP); type: cell-based, Staphylococcus warneri; conditions: 130 µg/mL chloramphenicol pre-treatment 15 min, Py4 0.6 µM or vancomycin 2.0 µM, 30 min
# Method: The cytoplasmic UDP-MurNAc-pentapeptide (abbreviated as UMP) accumulation experiment was carried out according to the method previously described. In brief, S. warneri cells were grown at 37 °C to an OD600 of 0.5 in 40 mL broth medium and then the culture was supplemented with 130 μg/mL chloramphenicol to impede bacterial cell proliferation by blocking their protein synthesis. After 15 min of incubation, the culture was divided into three equal portions, and one portion was treated with Py4 (0.6 μM), the second with vancomycin (2.0 μM), and the third was used as an untreated control. UMP was extracted from the harvested cells following 30 min of incubation. UMP was identified by MALDI−TOF on MALDI−TOF/TOF Ultraflextreme^TM (Bruker Daltonics, Bremen, Germany) using 2,5-dihydroxybenzoic acid (DHB) as the matrix in the negative-reflection ion mode.
# [14] = system: Bacillus megaterium cells; assay: Membrane permeability assay (propidium iodide fluorescence); type: cell-based; conditions: B. megaterium in PBS pH 7.3, 1 µM propidium iodide, peptide or vancomycin at 10 × CL, exc 525 nm / em 595 nm
# Method: The membrane permeability assay was performed according to the method previously described. Meucin-18 and Meucin-49, two known scorpion venom lytic peptides, were used as positive controls and vancomycin, a known bacterial cell-wall synthesis inhibitor without membrane-disruptive ability as a negative control. Bacillus megaterium cells in 500 μL of phosphate buffered saline (PBS) (pH 7.3) were mixed with 1 μM propidium iodide (PI) for 5 min in the dark. Fluorescence was measured with the F-4500 FL spectrophotometer (Hitachi High-Tech Science Corporation, Tokyo, Japan). Once the basal fluorescence reached a constant value, peptides or vancomycin at 10 × CL were added, and changes in fluorescence arbitrary were monitored (λexc = 525 nm; λems = 595 nm).
# S. aureus = system: S. aureus; design: key: “+”, activity; “-“, no activity”; conditions: Figure 6, antibacterial activity; cited from earlier work
# Excerpt: Compared with plectasin, the natural variant Py4 has two point mutations at positions 14 and 33 (Figure 1A) that are respectively located on the α-helix (Q14K) and the C-loop (G33A) (Figure 1A). These two mutations are interesting considering their mutational effects previously reported in plectasin. (1) Position 14. […] Small dots represent identical residues to plectasin. Positions showing differences in the peptides are boxed and the mutated residues relative to plectasin are colored in red. Positions involved in intramolecular epistasis are linked by one line. The arrow points to the position accounting for differential genetic backgrounds between plectasin and Py4. […] “+”, activity; “-“, no activity”. TEXT PRINTED IN THE PICTURE: Ple ...
compound,measurement,setting,value
"CC[C@H](C)[C@@H]1NC(=O)[C@H](CO)NC(=O)[C@H](CCCCN)NC(=O)[C@@H]2CSSC[C@@H](C(=O)N[C@@H](Cc3ccc(O)cc3)C(=O)O)NC(=O)[C@H](CCCCN)NC(=O)[C@@H]3CSSC[C@H](NC(=O)[C@H](CCCCN)NC(=O)[C@H](CCSC)NC(=O)[C@H](CC(=O)O)NC(=O)[C@H](CC(=O)O)NC(=O)[C@H](CCC(=O)O)NC(=O)[C@H](CC(=O)O)NC(=O)[C@H](Cc4c[nH]c5ccccc45)NC(=O)[C@@H]4CCCN4C(=O)CNC(=O)[C@H](CC(N)=O)NC(=O)[C@@H](NC(=O)CNC(=O)[C@H](Cc4ccccc4)NC(=O)CN)CSSC[C@H](NC(=O)[C@H](Cc4ccc(O)cc4)NC(=O)CNC(=O)CNC(=O)[C@H](CCCCN)NC(=O)[C@H](Cc4ccc(O)cc4)NC(=O)CNC(=O)[C@H](CCCCN)NC1=O)C(=O)N[C@@H](C)C(=O)N[C@@H](CCCCN)C(=O)N[C@@H](C)C(=O)NCC(=O)N[C@@H](Cc1ccccc1)C(=O)N[C@@H](C(C)C)C(=O)N3)C(=O)N[C@@H](Cc1c[nH]cn1)C(=O)N[C@@H](CC(N)=O)C(=O)N[C@@H](Cc1c[nH]cn1)C(=O)N2 [Py4, Pyronesin4] (H-GFGCNGPWDEDDMKCHNHCKSIKGYKGGYCAKAGFVCKCY-OH; disulfide 4-30, 15-37, 19-39)",CL (lethal concentration),[1],2.69 µM
same,CL (lethal concentration),[2],0.67 µM
same,CL (lethal concentration),[3],4.78 µM
same,CL (lethal concentration),Curtobacterium luteum,0.03 µM
same,CL (lethal concentration),[4],1.06 µM
same,CL (lethal concentration),[5],4.38 µM
same,CL (lethal concentration),[6],2.69 µM
same,CL (lethal concentration),[7],1.22 µM
same,CL (lethal concentration),[8],2.69 µM
same,CL (lethal concentration),[9],2.51 µM
same,CL (lethal concentration),[10],4.03 µM
same,CL (lethal concentration),[11],2.51 µM
same,hemolysis on mouse blood cells,[12],no significant hemolysis
same,residual antibacterial activity after incubation in serum,[13]; 24 h,retained its full antibacterial activity
same,residual antibacterial activity after incubation in serum,[13]; 48 h,retained its full antibacterial activity
CN[C@H](CC(C)C)C(=O)N[C@H]1C(=O)N[C@@H](CC(N)=O)C(=O)N[C@H]2C(=O)N[C@H]3C(=O)N[C@H](C(=O)N[C@H](C(=O)O)c4cc(O)cc(O)c4-c4cc3ccc4O)[C@H](O)c3ccc(c(Cl)c3)Oc3cc2cc(c3O[C@@H]2O[C@H](CO)[C@@H](O)[C@H](O)[C@H]2O[C@H]2C[C@](C)(N)[C@H](O)[C@H](C)O2)Oc2ccc(cc2Cl)[C@H]1O [vancomycin],"cytoplasmic accumulation of UMP (RP-HPLC peak, MALDI-TOF identified)",S. warneri cells,common emerging peak
same,membrane-disruptive activity (PI fluorescence increase),[14],no obvious fluorescent increase
"Plectasin (GFGCNGPWDEDDMQCHNHCKSIKGYKGGYCAKGGFVCKCY; UniProt Q53I06 56-95, looked up) [first fungal defensin found in Pseudoplectania nigrella, prototype of fungal defensin-like peptides]",Activity,S. aureus,+
